# Measured values: patent US12144791B2, “KRAS agonists, pharmaceutical compositions, and uses in managing cancer” (Emory University, priority 2019, dated 2024)
# Entries after “also recorded” stand apart in the source; their conditions may differ.
# How the values were obtained:
# [1] = test system: A549, H157, Calu-1 and H292 cells; experiment: GFP-LC3 autophagosome quantification; type: cell-based, human; conditions: 48 h
# Procedure: After 24 h, cells were treated with KRA-533 for 48 h. The percentages of LC3-GFP-transfected cells bearing LC3-GFP aggregates (LC3-FGPvac) were quantified as shown.
# (§1) Activated KRAS can trigger cell death via apoptosis and autophagy-associated cell death in cancer cells. To test whether KRA-533- activated KRAS promotes apoptosis and autophagic cell death, A549, H157, Calu-1 and H292 cells were treated with increasing concentrations of KRA-533 for 48 h, followed by analysis of KRAS activity, apoptosis and autophagy. […] Autophagy was measured by analysis of LC3-I/LC3-II and p62 following treatment of cells with KRA-533. It is well known that p62 is an autophagy receptor or substrate that can be degraded by autophagy. In addition to LC3-II, p62 was analyzed as another autophagy marker. […] To further quantify the level of autophagy, a GFP-LC3 construct was used to indicate autophagosomes. After treatment with KRA-533, GFP-LC3 redistributed from a diffuse staining pattern in the cytoplasm and nucleus to a cytoplasmic punctate structure that specifically labels pre-autophagosomal and autophagosomal membranes (i.e. GFP-LC3 vac cells). […] These findings indicate that, in addition to apoptosis, KRA-533 can also induce autophagic cell death.
# KRAS = experiment: KRAS-GTP pull-down by Raf-1-RBD and Western blot in lung cancer cell lines; type: cell-based, human; conditions: 48 h
# Procedure: “0” means DMSO vehicle control. […] Expression levels of KRAS, pERK, active caspase 3, PARP cleavage, Beclin1, LC3-I and LC3-II in total lysate were analyzed by Western blot.
# A library containing small molecules from the National Cancer Institute (NCI) was employed to dock the GTP/GDP binding pocket of KRAS (PDB ID code: 4EPT) using the University of California, San Francisco (UCSF) DOCK 6.1 program suite. The small molecules were ranked according to their energy scores. Top 500 small molecules with predicted binding energies were selected for screening of cytotoxicity in human lung cancer cells by sulforhodamine B (SRB) assay. […] This lead compound was named KRAS agonist-533 (KRA-533) (FIG. 1A). To test whether KRA-533 regulates KRAS activity in lung cancer cells, human lung cancer cell lines with or without KRAS mutation were treated with KRA-533 (10 μM) for 48 h. […] Cell proliferation was also measured following treatment of cells for 48 h using MTS Cell Proliferation Colorimetric Assay Kit.
# as §1
# KRAS S17A = molecular target: T1, KRAS S17A (Homo sapiens, UniProt P01116, S17A); experiment: Thermal shift assay, purified KRAS S17A; type: binding
# T1 construct: made in house
# Procedure: Melting temperature (Tm) values of DMSO control and 15 μM KRA-533 are shown.
# (§2) To further test this intracellularly, GFP-tagged WT, S17A, K117A and AA KRAS mutants were exogenously transfected into A549 cells. […] Activities of exogenous GFP-tagged WT and KRAS mutants were analyzed by Western blot using GFP antibody.
# A549 cells = experiment: Apoptotic and autophagic cell death after KRAS shRNA knockdown; type: cell-based, human; conditions: G12S mutant KRAS depleted by KRAS shRNA; 15 μM, 48 h
# Procedure: To further test whether KRAS is a required target for KRA-533 to induce apoptotic and autophagic cell death, G12S mutant KRAS was depleted using KRAS shRNA from A549 cells, followed by treatment with KRA-533 (15 μM) for 48 h.
# KRAS G12C = KRAS G12C (Homo sapiens, UniProt P01116, G12C); experiment: Thermal shift assay, purified KRAS G12C; type: binding; conditions: increasing concentrations
# Procedure: Melting temperature (Tm) values of DMSO Ctrl and 15 μM of KRA-533 are shown.
# (§3) To test whether KRA-533 directly binds to KRAS, a thermal shift assay was employed. […] To further assess whether KRA-533 activates KRAS directly, an in vitro cell-free GDP-GTP exchange experiment was carried out. Purified WT, G12C, G12D or G13D mutant KRAS proteins were incubated with purified GEF (RASGRP1) and GAP (RASA1) proteins in reaction buffer containing [γ-35S]-GTP in the absence or presence of increasing concentrations of KRA-533 at 25° C. for 60 min. KRAS activity was quantified by liquid scintillation counting. […] These findings indicate that KRA-533 not only activates WT KRAS but also has the capacity to further enhance KRAS activity of mutant KRAS.
# WT KRAS = WT KRAS (Homo sapiens, UniProt P01116); experiment: In vitro cell-free GDP-GTP exchange, WT KRAS; type: biochemical; conditions: with GEF (RASGRP1) and GAP (RASA1), 25° C., 60 min
# Procedure: (§4) GTPγS, purified GFP (RASGRP1, 180 nM) and GAP (RASA1, 180 nM) at 25° C. in the presence or absence of increasing concentrations of KRA-533.
# GTPγS, purified GFP (RASGRP1, 180 nM) and GAP (RASA1, 180 nM) at 25° C. in the presence or absence of 15 μM KRA-533. The radioactivity remaining on the protein after intensive washing was quantified by liquid scintillation.
# as §3, §2
# KRAS G13D = KRAS G13D (Homo sapiens, UniProt P01116, G13D); experiment: In vitro cell-free GDP-GTP exchange, KRAS G13D; type: biochemical; conditions: with GEF (RASGRP1) and GAP (RASA1), 25° C., 60 min
# Procedure: as §4, §3
smiles,measurement,setting,value
"O=C(CBr)NCCCCc1ccc(C(=O)O)cc1 [KRA-533, 4-(4-(2-bromoacetamido)butyl)benzoic acid]",percentage of GFP-LC3vac cells,[1],enhanced the percentage of GFP-LC3vac cells in a dose-dependent manner
same,"KRAS activity, cell lines bearing KRAS mutation versus without",KRAS; 10 μM,enhanced KRAS activity to a greater extent in cell lines bearing KRAS mutation than in cell lines without KRAS mutation
same,KRAS activity (GTP-KRAS pulled down by Raf-1-RBD),"KRAS; 10 μM, human lung cancer cell lines with or without KRAS mutation","enhanced KRAS activity in most human lung cancer cell lines tested, except H292"
same,"KRAS activity (KRAS-GTP), dose response","KRAS; A549, H157, Calu-1 and H292 cells, 0, 5, 10, 15 μM",enhanced KRAS activity in a dose-dependent manner
same,"binding (thermal shift), KRAS S17A",KRAS S17A,could bind
same,cell sensitivity to apoptotic and autophagic cell death after knockdown of mutant KRAS,A549 cells,significantly reduced cell sensitivity to the induction of apoptotic and autophagic cell death
same,"melting temperature (Tm) / binding, KRAS G12C",KRAS G12C,Dose dependent increases in melting temperature (Tm)
same,"KRAS activity (liquid scintillation), WT KRAS",WT KRAS,activated WT KRAS to increase its activity in a dose-dependent manner; also recorded: directly activated
same,"KRAS activity (liquid scintillation), KRAS G13D",KRAS G13D,further enhanced the activities of active KRAS mutants
